Source: patent US7790668B2, “2-methoxy-2,6-dimethyloctanal and its use as a fragrance ingredient” (Givaudan SA, priority 2005, dated 2010)

Assay: Odour threshold concentration by using an olfactometer
Conditions: for Odour threshold concentration, geometric mean: olfactometer, forced-choice triangle presentation, group of 12 panelists, both compounds measured on the same day under identical conditions; for odour threshold concentration, times lower compared to 6-methoxy-2,6-dimethylheptanal (Methoxymelonal): ratio of the geometric mean thresholds vs the prior-art compound
Excerpt: The odour threshold concentration is defined as the lowest concentration of the vapour of an odorous material in the air which can be detected by smell. The concentration can be measured by standard methods known in the art by using either olfactometry means or sniff-bottles allowing panelists to smell the presented headspace.
The olfactometer functions on the principle of a linear dilution of an odorant in a carrier gas. The quantity of odorant displaced depends on its vapour pressure and the carrier gas flow. A constant flow of nitrogen, regulated by a flow regulator, carries the odorant from a sample container to a mixing chamber. There, the carrier gas-odour mixture is diluted with odourless air. From the mixing chamber one part of the diluted odorous air is allowed to flow via a fused silica capillary to the sniffing funnel. The flow rate through the capillary, which determines the dosage of odorous air from the mixing chamber into the sniffing funnel, depends on the opening of the valve which can be regulated via PC from 1 to 256 ml in binary steps. The final dilution of the odorous air sample occurs in the glass funnel by flushing them permanently with odourless air at a flow rate of 8 L/min. Forced-choice triangle presentation is achieved by a special automated channel setting device where only in one position of a switch the odorant delivering capillary enters in the sniffing funnel, whereas in the two other positions the capillary is positioned outside the funnel and where the effluent is sucked away. After each trial the channel setting is changed automatically and in a random order. The concentration is calculated from the odorants vapour pressure and from the dilution ratios that were applied in the olfactometer, assuming that vapour saturation is achieved in the sample generator. As a control the concentration was by sampling a known volume from the capillary effluent into a headspace filter and then determined. The panelist starts sniffing at the olfactometer at a concentration level at which he perceives the odorant at medium intensity. After three correct answers in three consecutive trials (or four correct ones of five trials) at the same level, stimulus concentration is decreased by a factor of two to the next lower level, and so on, until the panelist has reached his threshold level.
Under identical conditions the odour threshold concentration for 6-methoxy-2,6-dimethyloctanal and 6-methoxy-2,6-dimethylheptanal was measured and compared by a group of 12 panelists. The sequence with which of the two compounds the panelist started smelling was alternated. Both compounds were measured on the same day and the following data were obtained: […]

Row | SMILES | Odour threshold concentration, geometric mean [ng/L] | odour threshold concentration, times lower compared to 6-methoxy-2,6-dimethylheptanal (Methoxymelonal) | odour threshold concentration, times lower compared to 6-methoxy-2,6-dimethylheptanal (Methoxymelonal) (listed as compound of the present invention) [times]
1 | COC(C)(C)CCCC(C)C=O (stereo not shown) [6-methoxy-2,6-dimethylheptanal, reference compound] | 1.92 | – | –
2 | CCC(C)(CCCC(C)C=O)OC (stereo not shown) [6-methoxy-2,6-dimethyloctanal] | 0.78 | about 2.5 times | 2.46
